Patent US12594292B2, “Antiviral prodrugs, intermediate-and long-acting formulations and methods” (priority 2022, dated 2026)

Assays:
Caco-2 cells = test: Cell viability assay CellTiter-Glo, Caco-2 cells (Example 7); conditions: Caco-2 cells, CellTiter-Glo
PSC-human lung cells = test: Cell viability assay CellTiter-Glo, PSC-human lung cells (Example 7)
[1] = system: SARS-CoV-2 isolate USA-WA1/2020; test: SARS-CoV-2 infection in Caco-2 cells, qRT-PCR (Example 7); assay type: cell-based
SRV A2 strain of RSV = test: RSV infection in Hep-2 cells, CPE reduction; assay type: cell-based, respiratory syncytial virus; conditions: RSV A2 in Hep-2 cells, 72 to 96 hours
Description: Methods: The SRV A2 strain of RSV was obtained from the ATCC. Ten thousand Hep-2 cells were seeded into each well of a 96-well plate in EMEM with 10% fetal bovine serum and 1% penicillin and streptomycin. Each well was inoculated with 100 TCID50 of virus. Two hours later wells were washed once with medium and serial four-fold dilutions of candidate antiviral drugs were added.

Calu-3 cells [2] = test: Cell viability assay CellTiter-Glo, Calu-3 cells (Example 7); conditions: Calu-3 cells, CellTiter-Glo
SARS-CoV-2 [3] = test: SARS-CoV-2 infection assay in Huh7.5 cells, nucleocapsid immunofluorescence (Example 6); assay type: cell-based; conditions: MOI 0.1, 48 hours
Huh7.5 cells [4] = test: Cell viability assay CellTiter-Glo, Huh7.5 cells (Example 7)
SARS-CoV-2 [5] = test: SARS-CoV-2 infection assay in Calu-3 cells, nucleocapsid immunofluorescence (Example 6); conditions: MOI 0.01, 44 hour
[6] = system: SARS-CoV-2 isolate USA-WA1/2020; test: SARS-CoV-2 infection in Vero E6 cells, qRT-PCR (Example 7); assay type: cell-based
Huh7.5 cells [7] = test: Cytotoxicity in Huh7.5 cells, nuclei count (Example 6); assay type: cell-based, human
VERO E6 cells = test: Cellular cytotoxicity in Vero E6 cells, MTT assay (Example 2); assay type: cell-based
Description: Ten thousand Vero E6 cells were seeded in 100 microliters of culture medium in 96 well plates. The following day serial two-fold dilutions of antiviral compounds or the DMSO-containing vehicle were added to each well. The USA WA-01 strain of SARS CoV-2 was added to each well at a multiplicity of infection of 0.1 thirty minutes later. Cells were incubated for 48 hours, washed twice in PBS and lysed with TRIzol. RNA was extracted using Directzol micro RNA columns. RNA was made into cDNA and assayed for the SARS CoV-2 spike protein and for a housekeeping gene (RPLPO) RNA by qPCR. Data represents the average of duplicate wells. Cellular cytotoxicity was also measured in VERO E6 cells. […] Cytotoxicity (CC50) was assessed using a commercially available MTT assay.

Human Coronavirus 229E = Human Coronavirus 229E infected MRC-5 cells, CPE by MTT (Example 8); assay type: cell-based; conditions: 229E in MRC-5 cells, 72 hours
SARS-CoV-2 [8] = test: SARS-CoV-2 infection assay in TMPRSS2-Vero cells, nucleocapsid immunofluorescence (Example 6); assay type: cell-based; conditions: MOI 0.01, 32 hours
[9] = system: SARS-CoV-2 isolate USA-WA1/2020; test: SARS-CoV-2 infection in Huh7.5 cells, qRT-PCR (Example 7); assay type: cell-based
HCoV-229E = assay type: cell-based, human Coronavirus 229E
Calu-3 cells [10] = test: Cytotoxicity in Calu-3 cells, nuclei count or CellTiter-Glo (Example 6); conditions: for select compounds up to 100 μM by CellTiter-Glo
Description: After which an equal volume of CellTiter-Glo reagent (Cat. #G7570, Promega, Madison, WI) was added, mixed and luminescence recorded on a Veritas Microplate Luminometer (Turner BioSystems) according to manufacturer recommendations.

[11] = Caco-2 cells, MOI 0.01, 48 hours

SMILES: CCCCCCCCCCCCCCCCCCOC[C@H](COP(=O)(O)OC[C@H]1O[C@@](C#N)(c2ccc3c(N)ncnn23)[C@H](O)[C@@H]1O)OCc1ccccc1 [Compound 15d, 1-O-octadecyl-2-O-benzyl-sn-glyceryl-phospho-RVn]
- CC50 (Caco-2 cells): 88400 nM
- CC50 (PSC-human lung cells): 61500 nM
- CC50 (MRC-5 cells): 43100 ± 18900 nM
- Selectivity ([1]; CC50/EC50, Caco-2 cells): 295
- EC50 [1, 11]: 300 nM
- EC90 [1, 11]: 330 nM
- EC50 (SRV A2 strain of RSV): 10 nM
- EC90 (SRV A2 strain of RSV): 19 nM
- CC50 (Calu-3 cells [2]): 98200 nM
- EC50 (SARS-CoV-2 [3]): 138 nM
- EC90 (SARS-CoV-2 [3]): 377 nM
- CC50 (Huh7.5 cells [4]): 62900 nM
- EC50 (SARS-CoV-2 [5]): 164 ± 20 nM
- EC90 (SARS-CoV-2 [5]): 536 ± 138 nM
- Selectivity ([6]; CC50/EC50, Vero E6 cells): 699
- EC50 ([6]; Vero E6 cells, MOI 0.01, 48 hours): 140 nM
- EC90 ([6]; Vero E6 cells, MOI 0.01, 48 hours, listed as ODBG-P-RVn, 15d): 160 nM
- CC50 (Huh7.5 cells [7]): > 20000 nM
- CC50 (VERO E6 cells): > 50000 nM
- EC50 (Human Coronavirus 229E): 150 nM
- EC50 (SARS-CoV-2 [8]): 205 nM
- EC90 (SARS-CoV-2 [8]): 432 nM
- Selectivity ([9]; CC50/EC50, Huh7.5 cells): 449
- EC90 ([9]; Huh7.5 cells, MOI 0.01, 48 hours, qRT-PCR (Example 7)): 150 nM
- EC50 ([9]; Huh7.5 cells, MOI 0.01, 48 hours, qRT-PCR (Example 7), listed as ODBG-P-RVn): 140 nM
- EC50 (HCoV-229E): 100 nM
- EC90 (HCoV-229E): 280 ± 13 nM
- CC50 (Calu-3 cells [10]): > 20000 nM
